In PMC6155626 (Molecules : A Journal of Synthetic Chemistry and Natural …, 2016):
In brackets after ≈: the same amount, converted by molar mass.

How the values were obtained:
[1] = system: Xanthomonas oryzae pv. oryzae; test: microbe, parasite or virus in culture; format: cell-based; conditions: for inhibition at 100 µg/mL / inhibition at 200 µg/mL / EC50: Xanthomonas oryzae; for inhibition at 100 µg/mL: read-out: Inhibition rate, X. oryzae, 100 μg/mL, average of three replicates; for inhibition at 200 µg/mL: read-out: Inhibition rate, X. oryzae, 200 μg/mL, average of three replicates; for Inhibition rate: X. oryzae, 200 μg/mL, average of three replicates
Ralstonia solanacearum = test: microbe, parasite or virus in culture; format: cell-based; conditions: Ralstonia solanacearum; for inhibition at 100 µg/mL / inhibition at 200 µg/mL: read-out: Inhibition rate; for EC50: R. solanacearum
[2] = system: Xanthomonas axonopodis pv. citri; test: microbe, parasite or virus in culture; format: cell-based; conditions: Xanthomonas axonopodis; for inhibition at 100 µg/mL / inhibition at 200 µg/mL: read-out: Inhibition rate

SMILES | inhibition at 100 µg/mL [1] [%] | inhibition at 200 µg/mL [1] [%] | inhibition at 100 µg/mL (Ralstonia solanacearum) [%] | inhibition at 200 µg/mL (Ralstonia solanacearum) [%] | inhibition at 100 µg/mL [2] [%] | inhibition at 200 µg/mL [2] [%] | melting point [°C] | EC50 [1] [µg/mL] | EC50 (Ralstonia solanacearum) [µg/mL] | EC50 [2] [µg/mL] | Inhibition rate [1] [%]
O=S(=O)(Cc1ccccc1)c1nnc(COc2ccc(F)cc2)s1 [Compound 5II-8, 2-(Benzylsulfonyl)-5-((4-fluorophenoxy)methyl)-1,3,4-thiadiazole] | 8 | 24 | 10 | 30 | 21 | 24 | 132 to 134 |  |  |  | 
O=S(=O)(Cc1ccccc1)c1nnc(COc2ccc(Cl)cc2)o1 [Compound 5I-10, 2-(Benzylsulfonyl)-5-((4-chlorophenoxy)methyl)-1,3,4-oxadiazole] | 48 | 90 | 19 | 24 | 62 | 74 | 126 to 128 |  |  |  | 
CCS(=O)(=O)c1nnc(COc2ccc(F)cc2)o1 [Compound 5I-7, 2-(Ethylsulfonyl)-5-((4-fluorophenoxy)methyl)-1,3,4-oxadiazole] | 100 | 100 | 99 | 100 | 53 | 65 |  | 0.52 ± 0.16 (≈ 1.82 µM) | 7.75 ± 1.01 (≈ 27.1 µM) | 52.2 ± 2.14 (≈ 182 µM) | 
CS(=O)(=O)c1nnc(COc2ccc(Cl)cc2)s1 [Compound 5II-2, 2-((4-Chlorophenoxy)methyl)-5-(methylsulfonyl)-1,3,4-thiadiazole] | 73 | 84 to 99 | 45 | 56 | 16 | 27 | 119 to 120 |  |  |  | 84
O=S(=O)(Cc1ccccc1)c1nnc(COc2ccc(F)cc2)o1 [Compound 5I-9, 2-(Benzylsulfonyl)-5-((4-fluorophenoxy)methyl)-1,3,4-oxadiazole] | 100 | 100 | 25 | 33 | 50 | 72 | 94 to 96 |  |  |  | 
O=S(=O)(Cc1ccccc1)c1nnc(COc2ccc(Cl)cc2Cl)s1 [Compound 5II-11, 2-(Benzylsulfonyl)-5-((2,4-dichlorophenoxy)methyl)-1,3,4-thiadiazole] | 14 | 37 | 26 | 27 | 32 | 38 | 124 to 125 |  |  |  | 
O=S(=O)(Cc1ccccc1)c1nnc(COc2ccc(Br)cc2)o1 [Compound 5I-11, 2-(Benzylsulfonyl)-5-((4-bromophenoxy)methyl)-1,3,4-oxadiazole] | 38 | 56 | 13 | 18 | 16 | 11 | 142 to 143 |  |  |  | 
CCS(=O)(=O)c1nnc(COc2ccc(Cl)cc2Cl)s1 [Compound 5II-7, 2-((2,4-Dichlorophenoxy)methyl)-5-(ethylsulfonyl)-1,3,4-thiadiazole] | 13 | 20 | 0 | 0 | 6 | 32 | 127 to 128 |  |  |  | 
CS(=O)(=O)c1nnc(COc2ccc(F)cc2)s1 [Compound 5II-1, 2-((4-Fluorophenoxy)methyl)-5-(methylsulfonyl)-1,3,4-thiadiazole] | 92 | 84 to 99 | 49 | 50 | 36 | 40 | 107 to 109 |  |  |  | 99
CCS(=O)(=O)c1nnc(COc2ccc(F)cc2)s1 [Compound 5II-6, 2-(Ethylsulfonyl)-5-((4-fluorophenoxy)methyl)-1,3,4-thiadiazole] | 55 | 65 | 12 | 7 | 18 | 15 | 89 to 90 |  |  |  | 
CCS(=O)(=O)c1nnc(COc2ccc(Cl)cc2Cl)o1 [Compound 5I-8, 2-((2,4-Dichlorophenoxy)methyl)-5-(ethylsulfonyl)-1,3,4-oxadiazole] | 87 | 100 | 43 | 97 | 36 | 62 |  |  |  |  | 
O=S(=O)(Cc1ccccc1)c1nnc(COc2ccc(Br)cc2)s1 [Compound 5II-10, 2-(Benzylsulfonyl)-5-((4-bromophenoxy)methyl)-1,3,4-thiadiazole] | 0 | 10 | 1 | 11 | 8 | 5 | 147 to 148 |  |  |  | 
O=S(=O)(Cc1ccccc1)c1nnc(COc2ccc(Cl)cc2Cl)o1 [Compound 5I-12, 2-(Benzylsulfonyl)-5-((2,4-dichlorophenoxy)methyl)-1,3,4-oxadiazole] | 70 | 98 | 20 | 33 | 23 | 26 | 121 to 122 |  |  |  | 
Cc1cc(Cl)ccc1OCc1nnc(S(=O)(=O)Cc2ccccc2)s1 [Compound 5II-12, 2-(Benzylsulfonyl)-5-((4-chloro-2-methylphenoxy)methyl)-1,3,4-thiadiazole] | 0 | 5 | 0 | 0 | 33 | 10 | 125 to 126 |  |  |  | 
Cc1cc(Cl)ccc1OCc1nnc(S(C)(=O)=O)o1 [Compound 5I-5, 2-((4-Chloro-2-methylphenoxy)methyl)-5-(methylsulfonyl)-1,3,4-oxadiazole] | 100 | 100 | 100 | 100 | 54 | 100 |  | 1.67 ± 0.16 (≈ 5.52 µM) | 14.9 ± 1.27 (≈ 49.3 µM) | 96.8 ± 5.78 (≈ 320 µM) | 
O=S(=O)(Cc1ccccc1)c1nnc(COc2ccccc2)o1 [Compound 5I-14, 2-(Benzylsulfonyl)-5-(phenoxymethyl)-1,3,4-oxadiazole] | 78 | 95 | 37 | 69 | 53 | 76 | 95 to 96 |  |  |  | 
CS(=O)(=O)c1nnc(COc2ccc(Br)cc2)s1 [Compound 5II-3, 2-((4-Bromophenoxy)methyl)-5-(methylsulfonyl)-1,3,4-thiadiazole] | 28 | 30 | 7 | 26 | 18 | 25 | 114 to 115 |  |  |  | 
CS(=O)(=O)c1nnc(COc2ccccc2)o1 [Compound 5I-6, 2-(Methylsulfonyl)-5-(phenoxymethyl)-1,3,4-oxadiazole] | 100 | 100 | 100 | 100 | 57 | 88 |  | 1.86 ± 0.23 (≈ 7.32 µM) | 13.6 ± 2.12 (≈ 53.3 µM) | 85 ± 4.32 (≈ 334 µM) | 
Cc1cc(Cl)ccc1OCc1nnc(S(=O)(=O)Cc2ccccc2)o1 [Compound 5I-13, 2-(Benzylsulfonyl)-5-((4-chloro-2-methylphenoxy)methyl)-1,3,4-oxadiazole] | 13 | 33 | 8 | 15 | 0 | 7 | 144 to 145 |  |  |  | 
CS(=O)(=O)c1nnc(COc2ccc(Cl)cc2Cl)s1 [Compound 5II-4, 2-((2,4-Dichlorophenoxy)methyl)-5-(methylsulfonyl)-1,3,4-thiadiazole] | 18 | 16 | 15 | 18 | 20 | 23 | 160 to 162 |  |  |  | 
O=S(=O)(Cc1ccccc1)c1nnc(COc2ccc(Cl)cc2)s1 [Compound 5II-9, 2-(Benzylsulfonyl)-5-((4-chlorophenoxy)methyl)-1,3,4-thiadiazole] | 14 | 19 | 18 | 17 | 23 | 14 | 140 to 141 |  |  |  | 
CS(=O)(=O)c1nnc(COc2ccc(Br)cc2)o1 [Compound 5I-3, 2-((4-Bromophenoxy)methyl)-5-(methylsulfonyl)-1,3,4-oxadiazole] | 100 | 100 | 100 | 100 | 90 | 91 | 97 to 99 | 1.67 ± 0.22 (≈ 5.01 µM) | 19.6 ± 0.98 (≈ 58.9 µM) | 24.9 ± 2.52 (≈ 74.7 µM) | 
Cc1cc(Cl)ccc1OCc1nnc(S(C)(=O)=O)s1 [Compound 5II-5, 2-((4-Chloro-2-methylphenoxy)methyl)-5-(methylsulfonyl)-1,3,4-thiadiazole] | 16 | 42 | 8 | 9 | 24 | 25 | 160 to 161 |  |  |  | 
